Reference: ChEMBL document CHEMBL3991601, “The target landscape of clinical kinase drugs” (Science, 2017)
Calls of active or inactive are those of the source.

Legend:
[1] = biological target: T1, Peroxisomal acyl-coenzyme A oxidase 3 (Homo sapiens, UniProt O15254)
T1 sequence (O15254 whole entry): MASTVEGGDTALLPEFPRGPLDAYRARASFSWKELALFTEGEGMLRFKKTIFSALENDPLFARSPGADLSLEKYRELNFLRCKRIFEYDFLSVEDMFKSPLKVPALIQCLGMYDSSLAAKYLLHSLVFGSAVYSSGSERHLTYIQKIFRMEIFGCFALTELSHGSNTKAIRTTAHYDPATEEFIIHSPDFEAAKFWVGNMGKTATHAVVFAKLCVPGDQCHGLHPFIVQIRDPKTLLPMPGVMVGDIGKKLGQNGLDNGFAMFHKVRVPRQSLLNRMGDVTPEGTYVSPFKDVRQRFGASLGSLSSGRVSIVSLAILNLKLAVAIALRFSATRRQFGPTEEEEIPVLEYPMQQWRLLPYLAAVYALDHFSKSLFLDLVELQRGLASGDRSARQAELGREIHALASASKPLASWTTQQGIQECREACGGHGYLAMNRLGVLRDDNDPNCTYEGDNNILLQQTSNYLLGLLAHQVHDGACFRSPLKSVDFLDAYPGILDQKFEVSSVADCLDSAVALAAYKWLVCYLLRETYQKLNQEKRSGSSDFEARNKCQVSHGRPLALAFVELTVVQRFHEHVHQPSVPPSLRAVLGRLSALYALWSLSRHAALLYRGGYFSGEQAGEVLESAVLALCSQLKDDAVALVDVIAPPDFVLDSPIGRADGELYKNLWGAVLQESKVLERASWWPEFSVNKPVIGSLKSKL

[2] = biological target: T2, Beta-adrenergic receptor kinase 1 (Homo sapiens, UniProt P25098)
T2 sequence (P25098 whole entry): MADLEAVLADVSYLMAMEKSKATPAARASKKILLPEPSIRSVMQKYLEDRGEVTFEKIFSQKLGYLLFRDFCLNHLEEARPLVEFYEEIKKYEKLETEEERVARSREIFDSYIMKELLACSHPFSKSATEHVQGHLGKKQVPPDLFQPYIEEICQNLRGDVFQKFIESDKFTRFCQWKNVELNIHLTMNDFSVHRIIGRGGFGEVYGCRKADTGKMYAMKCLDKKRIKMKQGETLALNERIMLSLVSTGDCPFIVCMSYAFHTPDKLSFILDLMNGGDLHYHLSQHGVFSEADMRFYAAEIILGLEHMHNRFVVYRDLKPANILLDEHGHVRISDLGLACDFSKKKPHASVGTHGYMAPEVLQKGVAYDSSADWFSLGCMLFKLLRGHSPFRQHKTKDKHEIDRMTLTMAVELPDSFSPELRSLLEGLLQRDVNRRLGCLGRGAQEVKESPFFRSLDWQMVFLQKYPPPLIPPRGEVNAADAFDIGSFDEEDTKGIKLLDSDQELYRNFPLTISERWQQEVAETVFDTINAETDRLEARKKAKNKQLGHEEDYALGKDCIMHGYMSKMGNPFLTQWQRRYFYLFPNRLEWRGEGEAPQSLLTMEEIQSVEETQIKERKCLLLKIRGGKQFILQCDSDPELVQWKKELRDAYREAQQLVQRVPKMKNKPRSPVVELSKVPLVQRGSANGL

[3] = biological target: RAC-gamma serine/threonine-protein kinase (Homo sapiens, UniProt Q9Y243)
Sequence of RAC-gamma serine/threonine-protein kinase (Q9Y243 whole entry): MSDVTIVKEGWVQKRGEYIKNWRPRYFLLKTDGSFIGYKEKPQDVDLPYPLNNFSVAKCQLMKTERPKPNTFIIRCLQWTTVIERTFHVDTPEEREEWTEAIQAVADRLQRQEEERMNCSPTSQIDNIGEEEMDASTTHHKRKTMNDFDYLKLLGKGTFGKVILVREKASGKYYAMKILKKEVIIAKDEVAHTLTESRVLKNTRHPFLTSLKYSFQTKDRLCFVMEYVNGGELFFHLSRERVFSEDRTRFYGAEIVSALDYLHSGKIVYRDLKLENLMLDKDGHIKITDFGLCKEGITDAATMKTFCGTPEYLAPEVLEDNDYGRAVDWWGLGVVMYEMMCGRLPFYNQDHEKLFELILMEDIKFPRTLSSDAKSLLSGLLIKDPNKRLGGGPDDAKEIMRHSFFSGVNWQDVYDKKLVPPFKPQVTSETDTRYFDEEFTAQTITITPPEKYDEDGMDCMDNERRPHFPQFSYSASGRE

[4] = biological target: Eukaryotic translation initiation factor 2-alpha kinase 1 (Homo sapiens, UniProt Q9BQI3)
Sequence of Eukaryotic translation initiation factor 2-alpha kinase 1 (Q9BQI3 whole entry): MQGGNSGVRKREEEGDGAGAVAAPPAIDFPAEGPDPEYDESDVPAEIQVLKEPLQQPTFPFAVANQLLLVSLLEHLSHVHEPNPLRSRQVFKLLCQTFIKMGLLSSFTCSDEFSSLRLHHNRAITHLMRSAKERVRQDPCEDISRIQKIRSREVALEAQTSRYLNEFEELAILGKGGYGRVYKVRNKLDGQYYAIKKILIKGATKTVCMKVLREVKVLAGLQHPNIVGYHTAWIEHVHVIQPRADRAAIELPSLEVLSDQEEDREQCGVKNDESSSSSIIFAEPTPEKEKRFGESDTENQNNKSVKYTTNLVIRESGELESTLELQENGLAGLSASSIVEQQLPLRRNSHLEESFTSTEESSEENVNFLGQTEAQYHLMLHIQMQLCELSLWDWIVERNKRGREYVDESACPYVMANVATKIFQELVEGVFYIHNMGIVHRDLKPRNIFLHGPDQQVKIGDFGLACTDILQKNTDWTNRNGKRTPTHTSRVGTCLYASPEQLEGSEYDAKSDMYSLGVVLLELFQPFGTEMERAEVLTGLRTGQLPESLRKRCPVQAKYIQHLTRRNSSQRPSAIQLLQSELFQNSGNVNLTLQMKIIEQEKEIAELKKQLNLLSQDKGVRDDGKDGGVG

[5] = biological target: Insulin-like growth factor 1 receptor (Homo sapiens, UniProt P08069)
Sequence of Insulin-like growth factor 1 receptor (P08069 31-736 limits assumed): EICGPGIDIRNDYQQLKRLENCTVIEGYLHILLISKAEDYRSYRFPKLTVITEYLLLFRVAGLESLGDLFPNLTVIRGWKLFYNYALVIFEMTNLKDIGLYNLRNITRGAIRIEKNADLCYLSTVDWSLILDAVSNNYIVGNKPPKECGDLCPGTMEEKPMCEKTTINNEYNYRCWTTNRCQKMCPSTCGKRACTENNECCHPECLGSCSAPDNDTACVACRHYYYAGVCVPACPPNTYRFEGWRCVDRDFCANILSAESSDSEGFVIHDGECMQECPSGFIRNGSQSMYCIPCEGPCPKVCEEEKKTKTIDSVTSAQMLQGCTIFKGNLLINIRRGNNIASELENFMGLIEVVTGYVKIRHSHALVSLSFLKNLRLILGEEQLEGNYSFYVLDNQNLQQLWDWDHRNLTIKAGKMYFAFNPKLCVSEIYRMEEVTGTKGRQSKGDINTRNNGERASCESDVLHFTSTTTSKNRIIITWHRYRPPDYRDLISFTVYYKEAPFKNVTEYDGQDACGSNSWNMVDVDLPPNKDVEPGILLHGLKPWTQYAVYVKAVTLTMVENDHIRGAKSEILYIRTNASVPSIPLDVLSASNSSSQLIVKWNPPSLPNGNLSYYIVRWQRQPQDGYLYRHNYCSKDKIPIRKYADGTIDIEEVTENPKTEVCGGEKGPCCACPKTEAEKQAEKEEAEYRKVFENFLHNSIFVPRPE
Sequence of Insulin-like growth factor 1 receptor (P08069 741-1367 limits assumed): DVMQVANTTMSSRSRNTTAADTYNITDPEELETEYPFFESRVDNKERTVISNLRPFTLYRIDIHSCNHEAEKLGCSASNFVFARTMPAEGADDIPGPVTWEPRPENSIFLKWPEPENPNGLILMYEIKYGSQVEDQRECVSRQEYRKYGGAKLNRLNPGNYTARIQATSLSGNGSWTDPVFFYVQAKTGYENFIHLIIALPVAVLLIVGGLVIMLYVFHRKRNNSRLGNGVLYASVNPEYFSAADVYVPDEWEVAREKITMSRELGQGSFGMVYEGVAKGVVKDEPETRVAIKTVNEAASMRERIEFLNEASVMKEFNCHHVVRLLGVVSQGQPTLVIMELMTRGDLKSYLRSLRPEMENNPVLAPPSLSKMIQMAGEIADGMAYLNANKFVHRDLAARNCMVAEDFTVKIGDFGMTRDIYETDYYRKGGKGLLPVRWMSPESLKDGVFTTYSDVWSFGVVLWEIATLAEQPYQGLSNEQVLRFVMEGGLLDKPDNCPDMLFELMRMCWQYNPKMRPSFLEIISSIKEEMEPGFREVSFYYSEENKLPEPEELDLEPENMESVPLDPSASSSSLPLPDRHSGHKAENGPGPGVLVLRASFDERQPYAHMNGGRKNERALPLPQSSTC

[6] = biological target: Mitogen-activated protein kinase kinase kinase 4 (Homo sapiens, UniProt Q9Y6R4)
Sequence of Mitogen-activated protein kinase kinase kinase 4 (Q9Y6R4 whole entry): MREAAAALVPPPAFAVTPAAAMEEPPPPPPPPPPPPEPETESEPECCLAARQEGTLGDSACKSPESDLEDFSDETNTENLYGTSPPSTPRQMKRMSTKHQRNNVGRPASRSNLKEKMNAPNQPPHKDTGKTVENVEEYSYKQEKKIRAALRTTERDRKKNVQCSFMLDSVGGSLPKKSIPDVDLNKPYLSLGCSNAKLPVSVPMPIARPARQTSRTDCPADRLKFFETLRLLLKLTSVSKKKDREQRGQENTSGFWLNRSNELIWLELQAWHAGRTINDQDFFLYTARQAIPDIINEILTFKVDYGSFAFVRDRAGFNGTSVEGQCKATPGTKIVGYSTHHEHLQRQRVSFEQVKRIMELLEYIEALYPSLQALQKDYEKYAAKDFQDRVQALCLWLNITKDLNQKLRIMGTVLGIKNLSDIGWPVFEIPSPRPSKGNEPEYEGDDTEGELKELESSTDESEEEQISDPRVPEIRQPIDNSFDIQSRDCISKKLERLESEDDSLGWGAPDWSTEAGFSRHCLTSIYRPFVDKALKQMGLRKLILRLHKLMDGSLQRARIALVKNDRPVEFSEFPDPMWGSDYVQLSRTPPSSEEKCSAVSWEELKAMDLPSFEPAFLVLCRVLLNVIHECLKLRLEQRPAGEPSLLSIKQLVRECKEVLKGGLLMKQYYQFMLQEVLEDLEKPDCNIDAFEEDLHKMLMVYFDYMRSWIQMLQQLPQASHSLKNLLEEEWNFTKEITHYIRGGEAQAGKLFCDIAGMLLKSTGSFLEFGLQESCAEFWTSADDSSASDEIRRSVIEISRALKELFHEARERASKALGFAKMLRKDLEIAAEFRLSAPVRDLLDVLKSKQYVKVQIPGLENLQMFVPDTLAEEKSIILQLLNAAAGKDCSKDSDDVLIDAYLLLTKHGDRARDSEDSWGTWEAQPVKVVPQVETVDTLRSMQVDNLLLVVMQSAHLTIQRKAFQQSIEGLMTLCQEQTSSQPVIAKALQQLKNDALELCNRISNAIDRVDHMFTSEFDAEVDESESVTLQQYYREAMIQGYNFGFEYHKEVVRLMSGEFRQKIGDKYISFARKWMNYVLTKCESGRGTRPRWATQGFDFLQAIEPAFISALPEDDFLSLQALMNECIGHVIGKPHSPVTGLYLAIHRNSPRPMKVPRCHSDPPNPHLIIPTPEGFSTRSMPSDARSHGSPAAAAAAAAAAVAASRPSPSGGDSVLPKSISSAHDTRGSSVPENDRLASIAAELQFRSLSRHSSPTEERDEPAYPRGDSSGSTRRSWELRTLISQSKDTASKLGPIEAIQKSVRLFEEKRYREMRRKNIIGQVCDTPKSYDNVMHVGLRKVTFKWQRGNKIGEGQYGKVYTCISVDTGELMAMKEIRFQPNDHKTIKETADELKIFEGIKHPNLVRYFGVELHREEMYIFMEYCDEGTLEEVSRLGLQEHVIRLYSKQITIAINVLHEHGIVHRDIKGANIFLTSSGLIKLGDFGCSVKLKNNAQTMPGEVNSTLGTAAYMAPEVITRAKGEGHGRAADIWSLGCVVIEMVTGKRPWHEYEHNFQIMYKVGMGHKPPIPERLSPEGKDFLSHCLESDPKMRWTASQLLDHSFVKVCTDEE

[7] = biological target: Mitogen-activated protein kinase 11 (Homo sapiens, UniProt Q15759)
Sequence of Mitogen-activated protein kinase 11 (Q15759 whole entry, canonical isoform): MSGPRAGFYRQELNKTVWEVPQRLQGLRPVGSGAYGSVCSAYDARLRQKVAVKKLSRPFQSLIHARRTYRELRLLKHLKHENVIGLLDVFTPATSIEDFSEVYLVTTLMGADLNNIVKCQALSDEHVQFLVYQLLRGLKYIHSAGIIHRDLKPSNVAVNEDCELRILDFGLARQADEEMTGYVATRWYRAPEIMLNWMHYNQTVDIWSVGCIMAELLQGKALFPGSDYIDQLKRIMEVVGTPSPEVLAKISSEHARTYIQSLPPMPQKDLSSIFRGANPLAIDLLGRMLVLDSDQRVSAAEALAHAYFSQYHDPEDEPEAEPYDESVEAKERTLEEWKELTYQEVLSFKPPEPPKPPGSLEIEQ

[8] = biological target: S-adenosylmethionine synthase isoform type-2 (Homo sapiens, UniProt P31153)
[9] = biological target: Maternal embryonic leucine zipper kinase (Homo sapiens, UniProt Q14680)
Sequence of Maternal embryonic leucine zipper kinase (Q14680 whole entry): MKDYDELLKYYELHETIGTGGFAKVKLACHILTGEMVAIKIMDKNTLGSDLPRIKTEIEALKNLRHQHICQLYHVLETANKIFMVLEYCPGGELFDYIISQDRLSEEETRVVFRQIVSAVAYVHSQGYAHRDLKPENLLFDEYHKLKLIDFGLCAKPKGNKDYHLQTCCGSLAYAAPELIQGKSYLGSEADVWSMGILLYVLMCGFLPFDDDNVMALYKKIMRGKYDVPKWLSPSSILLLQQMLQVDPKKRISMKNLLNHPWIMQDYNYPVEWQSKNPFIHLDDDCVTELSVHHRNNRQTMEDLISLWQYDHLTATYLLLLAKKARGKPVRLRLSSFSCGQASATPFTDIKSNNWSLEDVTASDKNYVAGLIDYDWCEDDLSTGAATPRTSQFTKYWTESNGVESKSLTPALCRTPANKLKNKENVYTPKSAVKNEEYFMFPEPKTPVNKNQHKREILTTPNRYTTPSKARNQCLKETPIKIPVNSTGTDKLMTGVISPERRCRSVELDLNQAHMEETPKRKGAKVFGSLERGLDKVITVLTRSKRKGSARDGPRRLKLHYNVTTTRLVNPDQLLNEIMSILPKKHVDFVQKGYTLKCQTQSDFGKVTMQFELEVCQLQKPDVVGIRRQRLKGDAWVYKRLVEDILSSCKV

[10] = biological target: Non-receptor tyrosine-protein kinase TYK2 (Homo sapiens, UniProt P29597)

Measured: Kd
Also: in the data inactive means no Kd found up to 30 µM.

Cc1cc([C@@H](C)Nc2ccccc2C(=O)O)c2nc(N3CCOCC3)cc(=O)n2c1 [AZD-6482]
inactive: [1] > 30 µM | [2] > 30 µM | [3] > 30 µM | [4] > 30 µM | [5] > 30 µM | [6] > 30 µM | [7] > 30 µM | [8] > 30 µM | [9] > 30 µM | [10] > 30 µM
